{"source": "patent US5869476A", "about": "“Pyrimidinone derivatives” (Boryung Pharmaceutical Co., Ltd., priority 1994, dated 1999)", "molecular_target": "T1, angiotensin II receptor (Oryctolagus cuniculus, UniProt P34976)", "T1 construct": "The aorta was cut into 3~4 mm to form ring samples; from tissue; host or cells: isolated aorta rings of New Zealand White rabbits", "T1 sequence (P34976 1-359)": "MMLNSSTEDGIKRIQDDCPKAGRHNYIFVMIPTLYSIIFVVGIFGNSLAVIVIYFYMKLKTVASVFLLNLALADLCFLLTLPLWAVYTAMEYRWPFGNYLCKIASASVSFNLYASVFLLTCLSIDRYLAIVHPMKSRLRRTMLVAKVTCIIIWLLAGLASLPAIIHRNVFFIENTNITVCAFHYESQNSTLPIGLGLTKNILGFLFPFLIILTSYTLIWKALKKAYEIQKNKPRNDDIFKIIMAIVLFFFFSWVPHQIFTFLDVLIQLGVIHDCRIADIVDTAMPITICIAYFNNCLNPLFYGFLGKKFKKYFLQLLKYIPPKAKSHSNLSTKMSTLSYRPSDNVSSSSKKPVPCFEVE", "experiment": "inhibition of angiotensin II induced contraction of isolated rabbit aorta rings", "assay_type": "cell-based, New Zealand White rabbit", "conditions": "test compound incubated 20 minutes", "experimental": "The antagonistic activity of the representative compounds of the invention was evaluated using the methodology describe below.\nFrom New Zealand White rabbits (male or female, 2~2.5 kg), aorta was isolated, and fat and connected tissue were removed therefrom. The aorta was cut into 3~4 mm to form ring samples. The aorta sample was suspended in 20 ml of organ bath (37° C.) containing modified Krebs-Henseleit solution saturated with 95% O2 /5% CO2 (pH 7.4).\nThe aorta preparation was exposed consecutively to 2 g of tensile strength for 90 minutes intermittently washing the sample with 30 minutes interval and then to 30 mM of KCl to observe contraction response. After washing more than three times, the aorta preparation was again allowed to contract three times for stabilization by adding Angiotensin II ([…]) thereto with 30 minutes interval. The third contraction response to Angiotensin II was considered as control.\n10 minutes after the third contraction, the test compound was administered to the aorta preparation, which was incubated for 20 minutes.\nComparing angiotensin II contraction curve obtained from the above inhibition test with that of the control, IC50 (concentration being required to inhibit angiotensin II induced contraction by 50%) was determined for each test compound(Table 1).", "key": {"[1]": {"conditions": "37° C., pH 7.4, read-out: IC50 (concentration being required to inhibit angiotensin II induced contraction by 50%)"}}, "note": "pIC50: −log10 of the molar value. Like-named read-outs stand apart in the source and are kept apart here."}
{"smiles": "CCCCc1nc(C)c(CC(=O)N2CCCC(C(=O)N(CC)CC)C2)c(=O)n1Cc1ccc(-c2ccccc2-c2nn[nH]n2)cc1", "note": "(stereo not drawn) [Compound 55, 2-n-butyl-5-(3'-diethylaminocarbonylpiperidinocarbonylmethyl)-6-methyl-3-[[2'-(1H-tetrazol-5-yl)biphenyl-4-yl]methyl]-pyrimidin-4-(3H)-one]", "values": [{"measurement": "pIC50", "setting": "[1]", "value": 8.44}]}
{"smiles": "CCCCc1nc(C)c(CC(=O)N2CCCCCC2)c(=O)n1Cc1ccc(-c2ccccc2-c2nn[nH]n2)cc1", "note": "[Compound 56, 2-n-butyl-5-hexamethyleneiminocarbonylmethyl-6-methyl-3-[[2'-(1H-tetrazol-5-yl)biphenyl-4-yl]methyl]-pyrimidin-4-(3H)-one]", "values": [{"measurement": "pIC50", "setting": "[1]", "value": 8.48}]}
{"smiles": "CCCCc1nc(C)c(CC(=O)N2CCCCCCC2)c(=O)n1Cc1ccc(-c2ccccc2-c2nn[nH]n2)cc1", "note": "[Compound 57, 2-n-butyl-5-heptamethyleneiminocarbonylmethyl-6-methyl-3-[[2'-(1H-tetrazol-5-yl)biphenyl-4-yl]methyl]-pyrimidin-4-(3H)-one]", "values": [{"measurement": "pIC50", "setting": "[1]", "value": 8.44}]}
{"smiles": "CCCCc1nc(C)c(CCC(=O)N2CCCC2)c(=O)n1Cc1ccc(-c2ccccc2-c2nn[nH]n2)cc1", "note": "[Compound 58, 2-n-butyl-5-(2'-pyrrolidinocarbonylethyl)-6-methyl-3-[[2'-(1H-tetrazol-5-yl)biphenyl-4-yl]methyl]-pyrimidin-4-(3H)-one]", "values": [{"measurement": "pIC50", "setting": "[1]", "value": 8.23}]}
{"smiles": "CCCCc1nc(C)c(CCC(=O)N2CCC[C@H]2C(=O)OC)c(=O)n1Cc1ccc(-c2ccccc2-c2nn[nH]n2)cc1", "note": "[Compound 59, 2-n-butyl-5-[2'-((S)-2\"-methoxycarbonylpyrrolidino)-carbonylethyl]-6-methyl-3-[[2'-(1H-tetrazol-5-yl)biphenyl-4-yl]-methyl]-pyrimidin-4-(3H)-one]", "values": [{"measurement": "pIC50", "setting": "[1]", "value": 8.47}]}
{"smiles": "CCCCc1nc(C)c(CCC(=O)N2CCC[C@H]2C(N)=O)c(=O)n1Cc1ccc(-c2ccccc2-c2nn[nH]n2)cc1", "note": "[Compound 60, 2-n-butyl-5-[2'-((S)-2\"-aminocarbonylpyrrolidino)carbonylethyl]-6-methyl-3-[[2'-(1H-tetrazol-5-yl)biphenyl-4-yl]methyl]-pyrimidin-4-(3H)-one]", "values": [{"measurement": "pIC50", "setting": "[1]", "value": 8.54}]}
{"smiles": "CCCCc1nc(C)c(CCC(=O)N2CC=CC2)c(=O)n1Cc1ccc(-c2ccccc2-c2nn[nH]n2)cc1", "note": "[Compound 61, 2-n-butyl-5-[2'-(3\"-pyrrolino)carbonylethyl]-6-methyl-3-[[2'-(1H-tetrazol-5-yl)biphenyl-4-yl]methyl]-pyrimidin-4-(3H)-one]", "values": [{"measurement": "pIC50", "setting": "[1]", "value": 8.11}]}
{"smiles": "CCCCc1nc(C)c(CCC(=O)N2CCCCC2)c(=O)n1Cc1ccc(-c2ccccc2-c2nn[nH]n2)cc1", "note": "[Compound 62, 2-n-butyl-5-[2'-piperidinocarbonylethyl]-6-methyl-3-[[2'-(1H-tetrazol-5-yl)biphenyl-4-yl]methyl]-pyrimidin-4-(3H)-one]", "values": [{"measurement": "pIC50", "setting": "[1]", "value": 8.02}]}
{"smiles": "CCCCc1nc(C)c(CCC(=O)N2CCC(Cc3ccccc3)CC2)c(=O)n1Cc1ccc(-c2ccccc2-c2nn[nH]n2)cc1", "note": "[Compound 63, 2-n-butyl-5-[2'-(4\"-benzylpiperidino)carbonylethyl]-6-methyl-3-[[2'-(1H -tetrazol-5-yl)biphenyl-4-yl]methyl]-pyrimidin-4-(3H)-one]", "values": [{"measurement": "pIC50", "setting": "[1]", "value": 6.52}]}
{"smiles": "CCCCc1nc(C)c(CCC(=O)N2CCC(C)CC2)c(=O)n1Cc1ccc(-c2ccccc2-c2nn[nH]n2)cc1", "note": "[Compound 64, 2-n-butyl-5-[2'-(4\"-methylpiperidino)carbonylethyl]-6-methyl-3-[[2'-(1H-tetrazol-5-yl)biphenyl-4-yl]methyl]-pyrimidin-4-(3H)-one]", "values": [{"measurement": "pIC50", "setting": "value given in M, read-out: IC50 (concentration being required to inhibit angiotensin II induced contraction by 50%)", "value": "< 5.00"}]}
{"smiles": "CCCCc1nc(C)c(CCC(=O)N2CCCC(C)(C)C2)c(=O)n1Cc1ccc(-c2ccccc2-c2nn[nH]n2)cc1", "note": "[Compound 65, 2-n-butyl-5-[2'-(3\",3\"-dimethylpiperidino)carbonylethyl]-6-methyl-3-[[2'-(1H-tetrazol-5-yl)biphenyl-4-yl]methyl]-pyrimidin-4-(3H)-one]", "values": [{"measurement": "pIC50", "setting": "[1]", "value": 8.12}]}
{"smiles": "CCCCc1nc(C)c(CCC(=O)N2CCC(C(=O)OCC)CC2)c(=O)n1Cc1ccc(-c2ccccc2-c2nn[nH]n2)cc1", "note": "[Compound 66, 2-n-butyl-5-[2'-(4\"-ethoxycarbonylpiperidino)carbonylethyl]-6-methyl-3-[[2'-(1H-tetrazol-5-yl)biphenyl-4-yl]methyl]-pyrimidin-4-(3H)-one]", "values": [{"measurement": "pIC50", "setting": "[1]", "value": 8.01}]}
{"smiles": "CCCCc1nc(C)c(CCC(=O)N2CCCCC2C(=O)OCC)c(=O)n1Cc1ccc(-c2ccccc2-c2nn[nH]n2)cc1", "note": "(stereo not drawn) [Compound 67, 2-n-butyl-5-[2'-(2\"-ethoxycarbonylpiperidino)carbonylethyl]-6-methyl-3-[[2'-(1H-tetrazol-5-yl)biphenyl-4-yl]methyl]-pyrimidin-4-(3H)-one]", "values": [{"measurement": "pIC50", "setting": "[1]", "value": 7.52}]}
{"smiles": "CCCCc1nc(C)c(CCC(=O)N2CCC(C(N)=O)CC2)c(=O)n1Cc1ccc(-c2ccccc2-c2nn[nH]n2)cc1", "note": "[Compound 68, 2-n-butyl-5-[2'-(4\"-aminocarbonylpiperidino)carbonylethyl]-6-methyl-3-[[2'-(1H-tetrazol-5-yl)biphenyl-4-yl]methyl]-pyrimidin-4-(3H)-one]", "values": [{"measurement": "pIC50", "setting": "[1]", "value": 8.64}]}
{"smiles": "CCCCc1nc(C)c(CCC(=O)N2CCCC(C(=O)N(CC)CC)C2)c(=O)n1Cc1ccc(-c2ccccc2-c2nn[nH]n2)cc1", "note": "(stereo not drawn) [Compound 69, 2-n-butyl-5-[2'-(3\"-diethylaminocarbonylpiperidino)carbonylethyl]-6-methyl-3-[[2'-(1H-tetrazol-5-yl)biphenyl-4-yl]methyl]-pyrimidin-4-(3H)-one]", "values": [{"measurement": "pIC50", "setting": "[1]", "value": 7.97}]}
{"smiles": "CCCCc1nc(C)c(CCC(=O)N2CCCCCC2)c(=O)n1Cc1ccc(-c2ccccc2-c2nn[nH]n2)cc1", "note": "[Compound 70, 2-n-butyl-5-(2'-hexamethyleneiminocarbonylethyl)-6-methyl-3-[[2'-(1H-tetrazol-5-yl)biphenyl-4-yl]methyl]-pyrimidin-4-(3H)-one]", "values": [{"measurement": "pIC50", "setting": "[1]", "value": 7.94}]}
{"smiles": "CCCCc1nc(C)c(CCC(=O)N2CCCCCCC2)c(=O)n1Cc1ccc(-c2ccccc2-c2nn[nH]n2)cc1", "note": "[Compound 71, 2-n-butyl-5-(2'-heptamethyleneiminocarbonylethyl)-6-methyl-3-[[2'-(1 H-tetrazol-5-yl)biphenyl-4-yl]methyl]-pyrimidin-4-(3H)-one]", "values": [{"measurement": "pIC50", "setting": "[1]", "value": 7.77}]}
{"smiles": "CCCCc1nc(C)c(CC(=O)N2CCSC2)c(=O)n1Cc1ccc(-c2ccccc2-c2nn[nH]n2)cc1", "note": "[Compound 72, 2-n-butyl-5-thiazolidinocarbonylmethyl-6-methyl-3-[[2'-(1H-tetrazol-5-yl)biphenyl-4-yl]methyl]-pyrimidin-4-(3H)-one]", "values": [{"measurement": "pIC50", "setting": "[1]", "value": 8.04}]}
{"smiles": "CCCCc1nc(C)c(CC(=O)N2CCOCC2)c(=O)n1Cc1ccc(-c2ccccc2-c2nn[nH]n2)cc1", "note": "[Compound 73, 2-n-butyl-5-morpholinocarbonylmethyl-6-methyl-3-[[2'-(1H-tetrazol-5-yl)biphenyl-4-yl]methyl]-pyrimidin-4-(3H)-one]", "values": [{"measurement": "pIC50", "setting": "[1]", "value": 8.76}]}
{"smiles": "CCCCc1nc(C)c(CC(=O)N2C(C)COCC2C)c(=O)n1Cc1ccc(-c2ccccc2-c2nn[nH]n2)cc1", "note": "(stereo not drawn) [Compound 74, 2-n-butyl-5-(3',5'-dimethylmorpholinocarbonylmethyl)-6-methyl-3-[[2'-(1H-tetrazol-5-yl)biphenyl-4-yl]methyl]-pyrimidin-4-(3H)-one]", "values": [{"measurement": "pIC50", "setting": "[1]", "value": 8.99}]}
{"smiles": "CCCCc1nc(C)c(CC(=O)N2CCSCC2)c(=O)n1Cc1ccc(-c2ccccc2-c2nn[nH]n2)cc1", "note": "[Compound 75, 2-n-butyl-5-thiomorpholinocarbonylmethyl-6-methyl-3-[[2'-(1H-tetrazol-5-yl)biphenyl-4-yl]methyl]-pyrimidin-4-(3H)-one]", "values": [{"measurement": "pIC50", "setting": "[1]", "value": 8.56}]}
